Source: US20250382330A1, “IMMUNOLOGICALLY ACTIVE POLYPEPTIDE” (CDRES PHARMA LLC, priority 2022, published 2025)
“Also recorded” adds a separate entry of the source. Like-named read-outs stand apart in the source and are kept apart here. Each block holds one molecule with its values, some of them ahead of it. Ends that are not written are not given here.

How the values were obtained:
[1] = first renal transplantations, cited from earlier work
[2] = test system: collagen-induced arthritis in Lewis rats; assay: Collagen-induced arthritis in Lewis rats, daily arthritis index; format: in vivo, Lewis rat; conditions: positive control, 10 mg/kg/day
Method: A. Collagen-Induced Lewis Rat Model of Rheumatoid Arthritis (RA)-PeptideX2 (SEQ ID NO: 1). The Lewis rat system is an art-accepted in vivo animal model of collagen-induced rheumatoid arthritis. Lewis rats obtained from a commercial laboratory supply vendor were maintained during a quarantine period under standard animal care conditions and found to be free of any clinical signs of disease or distress. Bovine type II collagen (10 mg, Chondrex, Inc., Redmond, WA) was dissolved in 2.5 ml 0.1M acetic acid and stirred overnight at 4-8° C. in the dark, and then one ml of this collagen solution was emulsified in one ml of incomplete Freund's adjuvant (ICFA, Sigma, St. Louis, MO) on an ice bath. On day zero, each of five rats was injected with 0.2 ml of collagen/ICFA emulsion at two sites and then observed for the next 30 days with the arthritis index (AI) calculated daily using the 16-point scoring method of Bevaart et al. (2010 Meths. Mol. Biol. 602:181: 0 points, no joint swelling or edema; 1 point, slight edema and erythema limited to foot and/or ankle; 2 points, edema and erythema in the toes and most ankle joints; 3 points, severe edema and erythema in the paw below the ankle joint; 4 points, edema and erythema of all four paws including the ankle joint). […]
6 Lewis rats (ENVIGO, female, 190-210g) were received, individually examined, and housed. […] Rat weights were recorded daily. […]

[3] = Solubility of peptideX2-13 modifications in aqueous buffer; format: physicochemical; conditions: for solubility, comparative: modification (10) vs peptideX2-13, modification (11) vs (10), reversed core sequence
Method: Various modifications of peptideX2-13 were tested for solubility (see Table 2).

[4] = Tolerability / adverse effects of intravenous dosing in the Lewis rat RA model; format: in vivo; conditions: for adverse effects: 500 μg/ml, intravenous
Method: On day 15, the rats were divided into treatment groups and were dosed intravenously on a daily basis for the next 15 days (except as noted) with the pentide YLQMN (SEQ ID NO: 5)-containing PeptideX2 (SEQ ID NO: 1) to achieve final circulating concentrations of PeptideX2 peptide as follows: 0 μg/ml (vehicle control: 0.2% acetic acid-Dulbecco's phosphate buffered saline (PBS-D), pH 6.0); 100 μg/ml vehicle; 200 μg/ml vehicle, and 500 μg/ml vehicle per rat/per day. As a positive control for anti-inflammatory activity, daily dosing of a control rat with prednisolone at 10 mg/kg/day was used. The arthritis index was calculated daily for each viable rat throughout the 30-day study.
B. Stability, aggregation, and toxicity of the pentide YLQMN (SEQ ID NO: 5)-containing polypeptides PeptideX2 (SEQ ID NO: 1) and G2-PeptideX2 (SEQ ID NO: 2).
Eleven Lewis rats were prepared using the collagen induced arthritis protocol. At day 15 thru day 30, three rats were given daily dosing of PeptideX2-13 (SEQ ID NO: 3) at 100 μg/ml, three rats were given daily dosing of PeptideX2-13 (SEQ ID NO: 3) at 250 μg/ml, and three rats were given daily dosing of PeptideX2-13 (SEQ ID NO: 3) at 500 μg/ml; as a positive control group, two rats were given prednisolone at 10 mg/kg/day.
The rats were weighed, scored for signs of arthritis and assigned to various treatment groups of one or more rats to each group. For the prednisolone control group, 200.85 mg prednisolone 21-hemisuccinate sodium salt (Sigma, Cat. P4153) was dissolved in 15 ml de-ionized water to prepare a 10 mg/ml solution which was stored at 4-8° C. when not in use. Rats in the study groups were dosed daily from day 15 through day 30 according to the formula for which a rat weighing (g)×64 ml/1000 g (represents the total blood volume) multiplied by the test product dose/test product concentration to determine the total volume to be injected into the animal per day to achieve that desired estimated blood concentration. Rats were weighed and scored daily during the treatment phase of the experiment and the results recorded and reported.

human TLR2 [5] = molecular target: T1, human TLR2 (human, UniProt O60603 21-784); assay: NF-κB SEAP reporter on human TLR panel; binding inferred from reporter activity
T1 construct: whole, on cells; Expressed in HEK293 NF-κB/SEAP reporter cells; also called hTLR2; toll-like receptor 2

human TLR2 [6] = molecular target: T1, human TLR2; assay: NF-κB SEAP reporter in HEK293 cells expressing human TLR2, 200 µg/ml (FIG. 6); binding inferred from reporter activity
Method: Human Toll-like receptor ligand screening was performed using test samples containing a peptide of interest at 200 μg/ml. The general procedure consisted of testing for NF-κB activation in HEK293 cells expressing a given TLR. The samples were tested against seven different human TLRs (TLR2, 3, 4, 5, 7, 8, 9). The media added to the wells were designed for the detection of NF-κB induced SEAP (secreted embryonic alkaline phosphatase) expression. After 16-24 hours of incubation, the optical density (OD) was read at 650 nm on a Molecular Devices SpectraMax 340PC absorbance detector.

[7] = buffer (0.2% acetic acid, 0.375M Hepes, 0.375% glycerol, pH 7), no concentration stated

T1 sequence (O60603 21-784): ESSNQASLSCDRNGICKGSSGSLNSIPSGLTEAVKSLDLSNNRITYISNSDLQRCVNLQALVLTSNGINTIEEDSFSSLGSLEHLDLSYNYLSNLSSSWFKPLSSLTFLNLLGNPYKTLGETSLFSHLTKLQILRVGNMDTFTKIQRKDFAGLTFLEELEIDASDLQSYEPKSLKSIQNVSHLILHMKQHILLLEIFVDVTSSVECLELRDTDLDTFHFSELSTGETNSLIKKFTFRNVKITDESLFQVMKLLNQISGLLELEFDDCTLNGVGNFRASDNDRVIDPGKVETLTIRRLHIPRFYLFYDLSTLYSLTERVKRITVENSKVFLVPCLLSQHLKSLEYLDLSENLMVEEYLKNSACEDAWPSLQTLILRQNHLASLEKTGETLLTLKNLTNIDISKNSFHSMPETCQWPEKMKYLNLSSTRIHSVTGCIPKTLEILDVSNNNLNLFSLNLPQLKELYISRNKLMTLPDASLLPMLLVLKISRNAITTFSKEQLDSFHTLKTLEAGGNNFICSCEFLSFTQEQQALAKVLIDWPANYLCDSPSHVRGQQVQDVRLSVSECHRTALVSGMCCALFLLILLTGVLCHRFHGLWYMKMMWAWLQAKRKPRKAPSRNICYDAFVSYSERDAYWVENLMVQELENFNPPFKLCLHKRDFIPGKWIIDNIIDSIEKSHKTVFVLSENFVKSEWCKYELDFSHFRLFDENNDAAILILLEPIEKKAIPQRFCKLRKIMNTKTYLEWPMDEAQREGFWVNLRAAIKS

Molecule: Cn1cnc([N+](=O)[O-])c1Sc1ncnc2nc[nH]c12 [AZA, azathioprine]
graft survival rate ([1]; 5 years post-transplant): 56%
graft survival rate ([1]; 10 years post-transplant): 46%

Molecule: C=CC[C@@H]1/C=C(\C)C[C@H](C)C[C@H](OC)[C@H]2O[C@@](O)(C(=O)C(=O)N3CCCC[C@H]3C(=O)O[C@H](/C(C)=C/[C@@H]3CC[C@@H](O)[C@H](OC)C3)[C@H](C)[C@@H](O)CC1=O)[C@H](C)C[C@@H]2OC [TAC, tacrolimus]
graft survival rate ([1]; 5 years post-transplant): 77%
graft survival rate ([1]; 10 years post-transplant): 60%

Molecule: C[C@]12C=CC(=O)C=C1CC[C@@H]1[C@@H]2[C@@H](O)C[C@@]2(C)[C@H]1CC[C@]2(O)C(=O)CO [prednisolone]
arthritis index [2]: potent and sustained reduction of the arthritis index; also recorded: decreased

Molecule: GKAANMQLYAAKG [SEQ ID NO: 17]
Solubility ([3]; buffer, at 2 mg/ml): Soluble in buffer

Molecule: GKAAYLQMNAAKG [PeptideX2-13]
Solubility [3, 7]: Soluble in buffer
tolerability in animal model compared with PeptideX2 ([4]; summary statement): tolerated and not toxic at a certain higher concentrations than was the case for previously described PeptideX2

Molecule: GRAAYLQMNAARG [K2R/K12R-substituted PeptideX2-13]
Solubility ([3]; buffer, at 2 mg/ml): Soluble in buffer

Molecule: GRSSANMQLYASSRG [modification (11)]
Solubility ([3]; at 5 mg/ml concentration): Insoluble at
solubility, comparative [3]: no significant difference

Molecule: KSIAYLQMNSLK [PeptideX2, reference compound]
adverse effects [4]: went into respiratory distress and died immediately
outcome (death) ([4]; single IV dose to achieve 300 μg/ml, thirty-eight minutes after injection): went into convulsions again and died

Molecule: PKAAYLQMNAAKP [SEQ ID NO: 12]
Solubility ([3]; buffer, at 2 mg/ml): Soluble in buffer

Molecule: YLQMN [pentide, YLQMN]
adverse effects [4]: No adverse effects

Further lines, results first:

Solubility ([3]; buffer, at 2 mg/ml): Soluble in buffer
Molecule: GKAYLQMNAKG [SEQ ID NO: 13]

Solubility ([3]; buffer, at 2 mg/ml): Soluble in buffer
Molecule: GKYLQMNKG [SEQ ID NO: 22]

Solubility ([3]; at 5 mg/ml concentration): Insoluble at
solubility, comparative [3]: less solubility compared to peptideX2-13
Molecule: GRSSAYLQMNASSRG [modification (10)]

Solubility [3, 7]: insoluble in aqueous buffer
Molecule: GYLQMNG [modification (7), GYLQMNG]

binding result (human TLR2 [5]): binds
Molecule: KSIAYLQMNSLK [PeptideX2 (KSIAYLQMNSLK)]

binding result (human TLR2 [6]): binds
B1: reverse modified peptideX2 (NMQLY) (peptide)
peptide: NMQLY
notes: Printed as NMQLY; also called reverse core; reverse-peptideX2
